# Measured values: US20140037620A1, “Methods of Treating Breast Cancer with Gemcitabine Therapy” (British Columbia Cancer Agency Branch, priority 2012, published 2014)
# Where two headings read alike, the source gives them in different places.
# What was measured:
# [1] = tested on: women with locally advanced or metastatic breast cancer; conditions: original trial, 337 women, GD v D; cited from earlier work
# [2] = tested on: women with locally advanced or metastatic breast cancer; conditions: for effect on OS / relative reduction for TTP: GD v D; for relative reduction in mortality from the addition of gemcitabine to docetaxel compared to docetaxel alone: patients with basal-like subtype (PAM50)
# Protocol: Patients were randomly assigned to docetaxel (100 mg/m^2) day 1, every 21 days or gemcitabine (1000 mg/m^2) days 1 and 8 plus docetaxel (75 mg/m^2) day 8. Patients were either previously untreated, had prior anthracycline-based (neo)adjuvant chemotherapy or had received a single prior anthracycline-based chemotherapy regimen for metastatic breast cancer. The Danish Breast Cancer Cooperative Group (DBCG) prepared the original protocol as well as the biomarker supplement, and the Danish National Committee on Biomedical Research Ethics has approved the original protocol as well as the add-on (KF 02-045-01 and H-KF-02-045-01) before their activation. Time to progression (TTP) was the primary endpoint for the original trial as well as this biomarker sub-study (Nielsen et al., JCO 2011; 29:4748-4754). Overall survival (OS) and response rate (RR) were secondary endpoints. TTP was measured from random assignment to date of documented progression with censoring at date of last visit or of death. OS was calculated from date of random assignment to date of death with censoring for surviving patients at last visit date. Time-to-event endpoints (TTP and OS) were estimated by the Kaplan-Meier method, and PAM50 subtypes were compared using the log-rank test. Analyses of PAM50 subtypes were done unadjusted and adjusted for preselected covariates in multivariate Cox proportional hazards models. […] The adjusted model was further stratified for previous chemotherapy (Nielsen et al., JCO 2011; 29:4748-4754). The assumption of proportional hazards was assessed by Schoenfeld residuals. Analyses were done to assess whether treatment effects on TTP and OS varied according to PAM50 subtypes or the levels of preselected variables. The multivariate Cox proportional hazards model was extended by one interaction term at a time. The interaction terms were tested using the Wald test and results were given in a Forest plot. RR was evaluated for patients with measurable disease. […] RRs were compared by using Fisher's exact test.
substance,measurement,setting,value
gemcitabine plus docetaxel [GD],"HR for OS, treatment effect in the original study",[1],0.94
same,"HR for TTP, treatment effect in the original study",[1],0.68
same,"gain in median overall survival, doublet arm compared to monotherapy arm","[2]; basal-like patients, Kaplan-Meier estimates",10 months
same,effect on TTP across PAM50 intrinsic subtypes,"[2]; multivariate Cox regression, interaction test",TTP seemed equally improved in PAM50 intrinsic subtypes
same,effect on OS,[2]; patients with HER2-enriched subtype,significantly worsened OS
same,risk of TTP events and mortality in the doublet arm compared to single agent docetaxel,[2]; patients with HER2 amplified tumors,higher risk of TTP events
same,effect on OS,[2]; patients with basal-like breast cancer,significantly improved OS
same,effect on OS,"[2]; patients with basal-like breast cancer, listed as gemcitabine and docetaxel",more substantial reduction in mortality
same,relative reduction in mortality from the addition of gemcitabine to docetaxel compared to docetaxel alone,[2],71%
same,relative reduction in mortality from the addition of gemcitabine to docetaxel compared to docetaxel alone,[2]; listed as gemcitabine plus docetaxel,73%
same,relative reduction for TTP,[2]; patients with basal-like subtype,63%
same,benefit from adding gemcitabine to docetaxel,[2]; patients with highly proliferative subtypes (non-luminal A),No support was found for a more general benefit
same,survival benefit compared with docetaxel monotherapy,[2]; patients with non-basal-like subtypes,no significant incremental survival benefit
same,relative reduction for TTP,[2]; patients with other (non-basal-like) subtypes,37%
